Data reported in patent US12195427B2, “MASP-2 inhibitors and methods of use” (priority 2018, dated 2025).
Where a name gives a salt, the structure may show the parent alone.

Molecular target: MASP-2 CCP2-SP (Homo sapiens (Human), UniProt O00187)
Experiment: MASP-2 co-crystallization, X-ray crystallography and structure analysis (H-bonds, van der Waals contacts);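 as to Ligand-pharmacophore element distance, pharmacophore element C2: distance from averaged pharmacophore element to bound ligand; missing value means element absent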;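 as to Ligand-pharmacophore element distance, pharmacophore element C3: distance from averaged pharmacophore element to bound ligand; missing value means element absent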;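 as to Ligand-pharmacophore element distance, pharmacophore element C4: distance from averaged pharmacophore element to bound ligand; missing value means element absent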;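 as to Ligand-pharmacophore element distance, pharmacophore element C5: distance from averaged pharmacophore element to bound ligand; missing value means element absent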
Parameters: van der Waals contact distance, MASP-2 HIS 483 atom CD2 / van der Waals contact distance, MASP-2 HIS 483 atom NE2 / van der Waals contact distance, SER 654 C to compound atom / van der Waals contact distance, SER 654 O to compound atom / van der Waals contact distance, TRP 655 C to compound atom / van der Waals contact distance, MASP-2 GLY 528 atom CA / van der Waals contact distance TRP 655 atom CZ3 / van der Waals contact distance TRP 655 atom N / van der Waals contact distance TRP 655 atom CE3 / van der Waals contact distance GLY 656 atom C / van der Waals contact distance GLY 656 atom CA / van der Waals contact distance GLY 656 atom O / van der Waals contact distance, MASP-2 TYR 607 atom CD1 / van der Waals contact distance, MASP-2 PRO 606 atom O / d(C3,CA1) / d(CA1,N1)2 / d(H4,O1) / d(H4,O2) / d(O1,O2) / d(CA1,O2) / d(CA6,O1) / d(CA6,O2) / d(CA1,C5) / d(O2,H3) / d(N2,C2) / d(CA5,N2) / d(N2,C4) / d(N2,C6) / d(N2,CA3) / d(N2,O3) / d(O4,H2): unit not given beside the values
Details: for H-bond distance to MASP-2 GLY 656 atom O: GLY 656 O; for H-bond distance to MASP-2 SER 628 atom O: SER 628 O; for H-bond distance to MASP-2 SER 654 atom O: SER 654 O; for H-bond distance to MASP-2 SER 657 atom O: SER 657 O; for van der Waals contact distance, MASP-2 HIS 483 atom CD2 / van der Waals contact distance, MASP-2 HIS 483 atom NE2: Table A2-1; for van der Waals contact distance, VAL 653 CG1 to compound atom: Table A2-11; for van der Waals contact distance TRP 655 atom CE3 / van der Waals contact distance TRP 655 atom CZ3: Table A2-13; for van der Waals contact distance TRP 655 atom CE3: MASP-2 TRP 655 CE3, compound atom in line below; for van der Waals contact distance TRP 655 atom CZ3: MASP-2 TRP 655 CZ3; for Ligand-pharmacophore element distance, pharmacophore element C2 / Ligand-pharmacophore element distance, pharmacophore element C3 / Ligand-pharmacophore element distance, pharmacophore element C4 / Ligand-pharmacophore element distance, pharmacophore element C5 / Ligand-pharmacophore element distance, pharmacophore element C6 / Ligand-pharmacophore element distance, pharmacophore element C7 / Ligand-pharmacophore element distance, pharmacophore element CA1 / Ligand-pharmacophore element distance, pharmacophore element CA2 / Ligand-pharmacophore element distance, pharmacophore element CA3 / Ligand-pharmacophore element distance, pharmacophore element CA4 / Ligand-pharmacophore element distance, pharmacophore element CA5 / Ligand-pharmacophore element distance, pharmacophore element CA6: Table A4-1; for d(C3,CA1) / d(CA1,N1)2 / d(CA1,O1) / d(CA1,O2) / d(H4,O1) / d(H4,O2) / d(O1,O2): Table A5-1 pharmacophore: distance between elements, S2/S1 region; for a(C3, CA1, O1) / a(CA1, O1, O2) / a(O1, O2, H4) / a(N1, CA1, O1) b): Table A6-1 pharmacophore angle; for a(N1, CA1, O1) b): Methyl-amino-pyridine compounds
Outline: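 E. coli-expressed CCP2-SP (±6His); apo crystals soaked 1–2× in inhibitor-containing crystallization solution; optional 20% glycerol cryoprotection, LN2 flash-cool; synchrotron data at 1.0 wavelength; MR using 1Q3X portions, partial refinement; single pose analysed when several seen.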

[1] = Table A2-5: TYR 607 (CE1, CE2, OH), PRO 608 (CD, CG), SER 611 (CA)
[2] = Table A5-2 pharmacophore distance, S3/S4 region
[3] = Table A7-1, between pharmacophore elements of the bound compound
[4] = Table A7-2, between pharmacophore elements of the bound compound

MASP-2 CCP2-SP, sequence (O00187 445-686): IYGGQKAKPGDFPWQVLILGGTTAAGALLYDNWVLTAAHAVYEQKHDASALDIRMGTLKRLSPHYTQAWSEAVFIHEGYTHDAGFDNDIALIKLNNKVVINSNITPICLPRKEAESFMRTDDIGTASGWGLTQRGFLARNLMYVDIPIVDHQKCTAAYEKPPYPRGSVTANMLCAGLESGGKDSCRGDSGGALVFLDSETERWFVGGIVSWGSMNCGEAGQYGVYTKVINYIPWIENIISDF
MASP-2 CCP2-SP, sequence (O00187 364-432 partner): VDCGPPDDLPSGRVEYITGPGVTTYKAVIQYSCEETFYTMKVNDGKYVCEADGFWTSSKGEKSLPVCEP

## Cc1nc(N)ccc1CNC(=O)[C@H](C)NC(=O)[C@H]1C[C@@H](c2ccccc2)CCN1 [compound 1253, (2R,4S)—N—((S)-1-(((6-Amino-2-methylpyridin-3-yl)methyl)amino)-1-oxopropan-2-yl)-4-phenylpiperidine-2-carboxamide Dihydrochloride]
Table A1 (H-Bonds), ASP 627 OD2
  H-bond distance to MASP-2 ASP 627 atom OD2: 3.33
Table A1 (H-Bonds), GLY 656 N
  H-bond distance to MASP-2 GLY 656 atom N: 3.23
Table A1 (H-Bonds)
  H-bond distance to MASP-2 GLY 656 atom O: 2.83
  H-bond distance to MASP-2 SER 628 atom O: 3.12
  H-bond distance to MASP-2 SER 654 atom O: 2.99
  H-bond distance to MASP-2 SER 657 atom O: 2.85
  van der Waals contact distance, MASP-2 HIS 483 atom CD2: 3.74
  van der Waals contact distance, MASP-2 HIS 483 atom NE2: 3.66
  van der Waals contact distance, VAL 653 CG1 to compound atom: 3.31
  van der Waals contact distance TRP 655 atom CE3: 3.61
  van der Waals contact distance TRP 655 atom CZ3: 3.71
  Ligand-pharmacophore element distance, pharmacophore element C2: 0.28
  Ligand-pharmacophore element distance, pharmacophore element C3: 0.07
  Ligand-pharmacophore element distance, pharmacophore element C4: 0
  Ligand-pharmacophore element distance, pharmacophore element C5: 0
  Ligand-pharmacophore element distance, pharmacophore element C6: 0
  Ligand-pharmacophore element distance, pharmacophore element C7: 0
  Ligand-pharmacophore element distance, pharmacophore element CA1: 0.59
  Ligand-pharmacophore element distance, pharmacophore element CA2: 0.23
  Ligand-pharmacophore element distance, pharmacophore element CA3: 0
  Ligand-pharmacophore element distance, pharmacophore element CA4: 0
  Ligand-pharmacophore element distance, pharmacophore element CA5: 0
  Ligand-pharmacophore element distance, pharmacophore element CA6: 0
  d(C3,CA1): 2.87
  d(CA1,N1)2: 1.37
  d(CA1,O1): 4.36
  d(CA1,O2): 3.83
  d(H4,O1): 4.38
  d(H4,O2): 3.69
  d(O1,O2): 3.39
  a(C3, CA1, O1): 149.95
  a(CA1, O1, O2): 105.84
  a(O1, O2, H4): 131.28
  a(N1, CA1, O1) b): 174.19
Table A2-3
  van der Waals contact distance, MASP-2 PHE 529 atom CE2: 3.77
[1]
  van der Waals contact distance, MASP-2 amino acid atom to compound atom: 3.73
Table A2-7: SER 628 (CB, O, OG)
  van der Waals contact distance, MASP-2 amino acid atom to compound atom: 3.58
Table A2-12
  van der Waals contact distance, TRP 655 CA to compound atom: 3.41
[2]
  d(N2,C2): 1.46
  d(N2,CA2): 5.74
  d(O2,H3): 2.04
  d(O2,N2): 2.70
Table A6-2 pharmacophore angle
  a(O1, O2, H3): 134.57
  a(O1, O2, N2): 140.99
  a(O2, N2, C2): 130.77
  a(O2, N2, CA2): 155.92
[3]
  Pharmacophore torsion angle a(C3, CA1, O1, H4): 26.20
  Pharmacophore torsion angle a(H4, O1, O2, H3): 115.64
  Pharmacophore torsion angle a(H4, O1, O2, N2): 140.24
  Pharmacophore torsion angle a(N1, CA1, O1, H4): 3.75
  Pharmacophore torsion angle a(O1, H4, O2, CA1): −82.09
  Pharmacophore torsion angle a(O1, O2, N2, C2): 120.69
[4]
  Pharmacophore torsion angle a(O1, O2, N2, CA2): 126.24

## Cc1cccc([C@H]2CN[C@@H](C(=O)N[C@@H](C)C(=O)NCc3ccc(N)nc3C)C2)c1 [compound 1257, (2R,4S)—N—((S)-1-(((6-Amino-2-methylpyridin-3-yl)methyl)amino)-1-oxopropan-2-yl)-4-(m-tolyl)pyrrolidine-2-carboxamide Dihydrochloride]
Table A1 (H-Bonds)
  H-bond distance to MASP-2 GLY 656 atom O: 2.82
  H-bond distance to MASP-2 SER 628 atom O: 3.12
  H-bond distance to MASP-2 SER 654 atom O: 3.02
  H-bond distance to MASP-2 SER 657 atom O: 2.86
  van der Waals contact distance, MASP-2 HIS 483 atom CD2: 3.7
  van der Waals contact distance, MASP-2 HIS 483 atom NE2: 3.72
  van der Waals contact distance, VAL 653 CG1 to compound atom: 3.36
  van der Waals contact distance TRP 655 atom CE3: 3.87
  van der Waals contact distance TRP 655 atom CZ3: 3.77
  Ligand-pharmacophore element distance, pharmacophore element C2: 0
  Ligand-pharmacophore element distance, pharmacophore element C3: 0.1
  Ligand-pharmacophore element distance, pharmacophore element C4: 0
  Ligand-pharmacophore element distance, pharmacophore element C5: 0
  Ligand-pharmacophore element distance, pharmacophore element C6: 0.53
  Ligand-pharmacophore element distance, pharmacophore element C7: 0
  Ligand-pharmacophore element distance, pharmacophore element CA1: 0.65
  Ligand-pharmacophore element distance, pharmacophore element CA2: 0
  Ligand-pharmacophore element distance, pharmacophore element CA3: 0
  Ligand-pharmacophore element distance, pharmacophore element CA4: 0
  Ligand-pharmacophore element distance, pharmacophore element CA5: 1.2
  Ligand-pharmacophore element distance, pharmacophore element CA6: 0
  d(C3,CA1): 2.87
  d(CA1,N1)2: 1.35
  d(CA1,O1): 4.45
  d(CA1,O2): 4.03
  d(H4,O1): 4.43
  d(H4,O2): 3.84
  d(O1,O2): 3.61
  a(C3, CA1, O1): 150.46
  a(CA1, O1, O2): 109.00
  a(O1, O2, H4): 128.83
  a(N1, CA1, O1) b): 174.64
Table A2-3
  van der Waals contact distance, MASP-2 PHE 529 atom CD1: 3.89
Table A2-4
  van der Waals contact distance, MASP-2 PRO 606 atom O: 3.38
[1]
  van der Waals contact distance, MASP-2 amino acid atom to compound atom: 3.8
Table A2-9, ARG 630, AA atoms CG, CZ
  van der Waals contact distance, MASP-2 amino acid atom to compound atom: 3.53
Table A2-12
  van der Waals contact distance, SER 654 O to compound atom: 3.73
  van der Waals contact distance, TRP 655 CA to compound atom: 3.57
Table A2 section before Table A2-8
  van der Waals contact distance, MASP-2 amino acid atom to compound atom: 3.86
[2]
  d(CA5,N2): 5.09
  d(N2,C6): 6.64
  d(O2,H3): 2.18
  d(O2,N2): 2.71
Table A6-2 pharmacophore angle
  a(O1, O2, H3): 132.63
  a(O1, O2, N2): 141.45
  a(O2, N2, C6): 105.30
[3]
  Pharmacophore torsion angle a(C3, CA1, O1, H4): 30.77
  Pharmacophore torsion angle a(H4, O1, O2, H3): 108.60
  Pharmacophore torsion angle a(H4, O1, O2, N2): 132.94
  Pharmacophore torsion angle a(N1, CA1, O1, H4): 11.94
  Pharmacophore torsion angle a(O1, H4, O2, CA1): −83.51
[4]
  Pharmacophore torsion angle a(O1, O2, N2, C6): 146.13
  Pharmacophore torsion angle a(O1, O2, N2, CA5): 134.25
